What all share (test): LC-DAD of product
Holding throughout (format): biochemical
What all share (conditions): S-adenosyl-L-methionine co-substrate, pH 7.5, 28 °C, 2 h

One test has as its target T1, Gmγ-TMT2 (Glycine max, UniProt Q56GA2).
T1 sequence (Q56GA2 51-350): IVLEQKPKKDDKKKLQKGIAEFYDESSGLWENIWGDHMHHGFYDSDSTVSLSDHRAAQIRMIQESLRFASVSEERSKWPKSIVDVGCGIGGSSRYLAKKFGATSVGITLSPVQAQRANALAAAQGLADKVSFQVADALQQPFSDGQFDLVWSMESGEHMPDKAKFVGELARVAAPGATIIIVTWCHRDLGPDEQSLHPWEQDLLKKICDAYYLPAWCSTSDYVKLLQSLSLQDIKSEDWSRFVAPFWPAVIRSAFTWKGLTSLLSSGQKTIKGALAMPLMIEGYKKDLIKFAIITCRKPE

The next test deals with T2, Gmγ-TMT1 (Glycine max, UniProt A0A4D6BQA3).
T2 sequence (A0A4D6BQA3 1-296): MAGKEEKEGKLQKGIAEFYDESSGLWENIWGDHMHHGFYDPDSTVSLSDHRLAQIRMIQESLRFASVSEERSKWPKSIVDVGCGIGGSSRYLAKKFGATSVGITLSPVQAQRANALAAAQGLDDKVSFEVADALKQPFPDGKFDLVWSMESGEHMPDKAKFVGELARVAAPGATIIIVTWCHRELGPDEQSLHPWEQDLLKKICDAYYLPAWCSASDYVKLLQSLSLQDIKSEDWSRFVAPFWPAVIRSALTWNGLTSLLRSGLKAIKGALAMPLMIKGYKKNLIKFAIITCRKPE

In another test the target is T3, Gmγ-TMT3 (Glycine max, UniProt A0A4D6BMW5).
T3 sequence (A0A4D6BMW5 1-302): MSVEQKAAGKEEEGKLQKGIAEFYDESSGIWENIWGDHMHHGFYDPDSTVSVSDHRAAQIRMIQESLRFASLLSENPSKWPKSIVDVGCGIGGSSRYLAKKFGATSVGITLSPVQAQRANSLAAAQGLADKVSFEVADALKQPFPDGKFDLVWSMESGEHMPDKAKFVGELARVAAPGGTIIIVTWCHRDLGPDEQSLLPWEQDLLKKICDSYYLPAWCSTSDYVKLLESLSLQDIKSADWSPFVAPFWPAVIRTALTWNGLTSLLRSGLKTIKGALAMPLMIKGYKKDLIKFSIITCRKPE

For `Cc1c(O)cc2c(c1C)O[C@](C)(CCC[C@H](C)CCC[C@H](C)CCCC(C)C)CC2` [γ-T], the activity entry at Gmγ-TMT2 is “Gmγ-TMT3 had three-fold higher activity toward γ-T than Gmγ-TMT1 and Gmγ-TMT2”; on Gmγ-TMT1 it was “Gmγ-TMT3 had three-fold higher activity toward γ-T than Gmγ-TMT1 and Gmγ-TMT2”; at Gmγ-TMT3 it was “Gmγ-TMT3 had three-fold higher activity toward γ-T than Gmγ-TMT1 and Gmγ-TMT2”.

The values above are taken from paper PMC10504561 (Plant Communications, 2023).
